Results reported in patent publication US20120277211A1, “METHODS AND COMPOSITIONS FOR THE TREATMENT OF PSYCHOTIC DISORDERS THROUGH THE IDENTIFICATION OF THE SULT4A1-1 HAPLOTYPE” (priority 2009, published 2012).
Marks after values point to notes of the source that are not given here.

Columns and labels:
[1] = system: Caucasian schizophrenia patients; experiment: CATIE: time to discontinuation for all causes by SULT4A1-1 status; type: in vivo, human
Excerpt: The primary endpoint for the CATIE study was time to discontinuation for all causes (Lieberman et al., 2005). Thus the inventors evaluated the effect of SULT41-1 status on this important parameter.

schizophrenia patients = experiment: CATIE: months of successful treatment measured by the CGI scale (TMSUCC1); type: in vivo, human
Excerpt: The CATIE clinical data set included Clinical Global Impression (CGI) Scale, an observer-provided assessment of the psychiatric health of the patient (Stroup et al., 2003; Guy 1976). Patients are rated with the CGI Scale from 1 to 7, with higher scores indicating greater severity of illness. The CATIE study provided a response variable that measured the time (in months) of successful treatment as measured by the CGI scale (“TMSUCC1” in the CATIE data).

[2] = system: African American schizophrenia patients; experiment: CATIE: change in total PANSS (LOCF) by SULT4A1-1 haplotype status, African Americans; type: in vivo, human; details: for Number of individuals with change in total PANSS ≦−20% (responders) / Number of individuals with change in total PANSS ≧−20% (non-responders): LOCF
Protocol: The design of the CATIE study has been described in detail by others (Lieberman et al., 2005; Stroup et al., 2003). […] A total of 738 subjects consented to provide DNA for genetic study. […] Retrospective genetic analyses, judged to be exempt from human studies requirements by an IRB, were conducted in the current study. All tested patients were studied using well established clinical endpoints comparing baseline, intermediate, and last observation carried forward (LOCF) for the PANSS scores using CATIE data. […] To remove time on drug as a variable for the CATIE trial, analysis was limited to only those patients who were randomized to a different drug following the initial washout period (drug switchers).

[3] = system: Caucasian schizophrenia patients; experiment: CATIE: hospitalization due to exacerbation of psychosis by SULT4A1-1 status; type: in vivo, human
Excerpt: To assess if SULT4A1-1 status impacts the risk of hospitalization in Caucasians, the inventors assigned SULT4A1-1 status to each CATIE subject and evaluated hospitalization events due to exacerbation of psychosis. For this analysis, the inventors assigned a dichotomous value (positive or negative) for hospitalization status to subjects in each phase of the trial based on only the first hospitalization event for a given patient in that phase. Patients participating in Phases 1, 2, and/or 3 were included in the totals for the appropriate drug.
A Kaplan-Meier survival analysis was performed to determine whether there was a difference between the survival (hospitalization) rates for the SULT4A1-1 negative and SULT4A1-1 positive patient populations treated with each of the atypical antipsychotics. Survival plots model the fraction of the population that survived (i.e., no hospitalization event) as a function of time.

[4] = system: Caucasian schizophrenia patients; experiment: CATIE Phase I: change in total PANSS (LOCF) by SULT4A1-1 haplotype status, Caucasians; type: in vivo, human; details: for Number of individuals with change in total PANSS ≦−20% (responders) / Number of individuals with change in total PANSS ≧−20% (non-responders) / Responders: CATIE Caucasians, LOCF; for Responders: change in PANSS ≦−20%; for Effect size: olanzapine SULT4A1-1+ vs comparator group / Mean difference (95% CI) in delta PANSS: olanzapine SULT4A1-1+ minus comparator group: comparator = labelled drug in SULT4A1-1+ patients
Excerpt: There are several different metrics for quantifying response in clinical trials of antipsychotic medications. The most commonly used psychometric instrument is the Positive and Negative Syndrome Scale (PANSS), a 30-item semi-quantitative instrument scored by clinical professionals (Kay et al., 1987). The greater the decrease in PANSS score, the better the clinical response. The most direct measure of clinical response is absolute change in PANSS score. In addition to absolute change, the improvement is often reported as a percentage change from baseline PANSS score.
A decrease of at least 20% in total PANSS is one commonly used threshold for response (Leucht et al., 2009).
The design of the CATIE study has been described in detail by others (Lieberman et al., 2005; Stroup et al., 2003). […] A total of 738 subjects consented to provide DNA for genetic study. […] Retrospective genetic analyses, judged to be exempt from human studies requirements by an IRB, were conducted in the current study.
All tested patients were studied using well established clinical endpoints comparing baseline, intermediate, and last observation carried forward (LOCF) for the PANSS scores using CATIE data. LOCF analysis is a commonly used clinical endpoint for clinical trials for neuropsychiatric drugs, with changes in PANSS scores of between negative 20% and negative 30% used as typical endpoints to indicate clinically significant response (Leucht et al., 2009). To remove time on drug as a variable for the CATIE trial, analysis was limited to only those patients who were randomized to a different drug following the initial washout period (drug switchers).
The CATIE clinical data set included baseline PANSS scores based on clinical assessments prior to initiation of the assigned therapy, but following the washout period for any patients previously on antipsychotic medication. Follow up PANSS data for the CATIE trial were collected at each visit as described in detail by others (Stroup et al., 2003).
Since follow-up on subjects was not done at uniform time intervals, analysis was done using the last observation for each patient in treatment Phase I of the trial as the measure of response (last observation carried forward, LOCF). Main effect and interaction terms between the SULT4A1-1 haplotype and drug therapy were included in the linear model. A pre-determined set of contrasts for differences in percent change PANSS by haplotype within each drug therapy (three comparisons) and by drug therapy within each haplotype (six comparisons) were evaluated, with adjustment for multiple-comparisons using the step-up false-discovery rate (FDR) controlling procedure (Benjamini and Hochberg, 1995). A sub-analysis omitting those patients who were randomized to the same antipsychotic drug therapy was also conducted.

[5] = system: unsegmented patient populations; details: cited from earlier work
[6] = Unsegmented, Phases 1, 2 and/or 3, first event
[7] = SULT4A1-1 positive, randomized to a different drug

Row | Structure (SMILES) | Time to discontinuation, mean ([1]; SULT4A1-1 negative) | Time to discontinuation, mean ([1]; SULT4A1-1 positive) | Length of successful treatment (CGI Months), Mean (schizophrenia patients; SULT4A1-1 negative) | Length of successful treatment (CGI Months), Mean (schizophrenia patients; SULT4A1-1 positive) | Length of successful treatment (CGI Months), Mean (schizophrenia patients; Unsegmented) | Responders ([2]; SULT4A1-1 negative) | Number of individuals with change in total PANSS ≦−20% (responders) ([2]; SULT4A1-1 negative) | Number of individuals with change in total PANSS ≧−20% (non-responders) ([2]; SULT4A1-1 negative) | Responders ([2]; SULT4A1-1 positive) | Number of individuals with change in total PANSS ≦−20% (responders) ([2]; SULT4A1-1 positive) | Number of individuals with change in total PANSS ≧−20% (non-responders) ([2]; SULT4A1-1 positive) | HOSP, number of patients hospitalized ([3]; SULT4A1-1 negative) | HOSP, rate of hospitalization ([3]; SULT4A1-1 negative) | HOSP, number of patients hospitalized ([3]; SULT4A1-1 positive) | HOSP, rate of hospitalization ([3]; SULT4A1-1 positive) | HOSP, rate of hospitalization ([3]; Unsegmented) | HOSP, number of patients hospitalized [3, 6] | DELTA PANSS % (mean change in PANSS score from baseline to LOCF) ([4]; SULT4A1-1 negative) | Number of individuals with change in total PANSS ≦−20% (responders) ([4]; SULT4A1-1 negative) | Number of individuals with change in total PANSS ≧−20% (non-responders) ([4]; SULT4A1-1 negative) | other results
1 | OCCN1CCN(CCCN2c3ccccc3Sc3ccc(Cl)cc32)CC1 [Perphenazine] | 10.6* Months | 7.6** Months | 7.03 Months | 5.29 Months | 6.72 Months | 27.0% | 10 | 27 | 0% | 0 | 2 | 9 | 13.4% | 1 | 7.1% | 12.3% | 10 | −3*** % | 16 | 47 | Responders ([4]; SULT4A1-1 negative): 25.4%**; DELTA PANSS % (mean change in PANSS score from baseline to LOCF) ([4]; SULT4A1-1 positive): −10* %; Number of individuals with change in total PANSS ≧−20% (non-responders) ([4]; SULT4A1-1 positive): 9; Number of individuals with change in total PANSS ≦−20% (responders) [4, 7]: 5; Responders ([4]; SULT4A1-1 positive): 35.7%; Effect size: olanzapine SULT4A1-1+ vs comparator group [4]: 0.68; Mean difference (95% CI) in delta PANSS: olanzapine SULT4A1-1+ minus comparator group [4]: −14.2 (−29.8 to 1.4)
2 | O=C1Cc2cc(CCN3CCN(c4nsc5ccccc45)CC3)c(Cl)cc2N1 [Ziprasidone] | 8.2*** Months | 11.7 Months | 4.51 Months | 8.36^d Months | 5.36 Months | 15.4% | 4 | 22 | 0% | 0 | 3 | 11 | 13.4% | 2 | 7.1% | 11.8% | 13 | −4*** % | 6 | 32 | Effect Size vs. FGA ([5]; first generation antipsychotics, Davis et al. (2003)): −0.04; Effect Size vs. Placebo ([5]; meta-analysis, Leucht et al. (2009), negative = greater reduction in PANSS): −0.48; Mean difference in total PANSS score between olanzapine and labelled drug, Meta-analysis ([5]; unsegmented populations, Leucht et al. (2009)): −8.3; Kaplan-Meier: difference between survival (no hospitalization) rates of SULT4A1-1 negative and positive patients ([3]; per drug): not statistically significant; Mean difference in total PANSS score between olanzapine and labelled drug, CATIE SULT4A1-1+ ([4]; SULT4A1-1+): −17.9; Responders ([4]; SULT4A1-1 negative): 15.7%**; DELTA PANSS % (mean change in PANSS score from baseline to LOCF) ([4]; SULT4A1-1 positive): −8* %; Number of individuals with change in total PANSS ≧−20% (non-responders) ([4]; SULT4A1-1 positive): 7; Number of individuals with change in total PANSS ≦−20% (responders) [4, 7]: 3; Responders ([4]; SULT4A1-1 positive): 30.0%; Mean difference in total PANSS score between olanzapine and labelled drug, CATIE SULT4A1-1− ([4]; SULT4A1-1−): −2.1; Mean difference in total PANSS score between olanzapine and labelled drug, CATIE unsegmented ([4]; Unsegmented): −4.9; Effect size: olanzapine SULT4A1-1+ vs comparator group [4]: 0.77; Mean difference (95% CI) in delta PANSS: olanzapine SULT4A1-1+ minus comparator group [4]: −16.1 (−32.7 to 0.5); Effect Size attributable to SULT4A1-1 status in CATIE ([4]; olanzapine-treated SULT4A1-1 positive versus labelled drug-treated SULT4A1-1 positive): −0.77^b
